Assay results as given in patent US12060586B2, “Cell data recorders and uses thereof” (The Broad Institute, Inc., priority 2018, dated 2024).

System: Wnt signaling
Test: Wnt signaling-driven luciferase expression in HEK293T cells
Assay type: cell-based, human
Conditions: HEK293T transfected with (LEF-TCF)7-BE3-P2A-Luc; LiCl 50 mM, 24 hours
Text: The Wnt signaling pathway (also known as a signaling cascade) plays a crucial role in embryonic development and aberrant Wnt signaling is associated with a variety of diseases in humans (38). A recording of Wnt signaling was sought using CAMERA 2m in human cells. To achieve this goal, the expression of BE3 was placed under a (LEF-TCF)7 promoter (39) that responds to Wnt signaling to initiate downstream gene expression in CAMERA 2 m.3. […] A (LEF-TCF)7-BE3-P2A-Luc construct that expresses a firefly luciferase protein together with BE3 was included so that Wnt could be monitored simultaneously by luminescence and by high-throughput sequencing of the CCR5 recording locus. […] This increase in Wnt signaling was permanently recorded by a 53-fold increase in base editing at the CCR5 locus upon LiCl treatment (FIG. 5E).
To enable CAMERA 2m to record Wnt signaling, a (TCF/LEF)7 promoter was installed upstream BE3 and BE3-P2A-Luc to generate CAMERA 2 m.3 ((TCF/LEF)7-BE3 and ((TCF/LEF)7-BE3-P2A-Luc). TOPFlash ((TCF/LEF)7-Luc) (47) was used as a transient readout of Wnt signaling. A control plasmid that encodes the Renilla luciferase was included to normalize transfection efficiency for luminescence readout. […]
Firefly luciferase and Renilla luciferase activities were measured 24 hours after LiCl treatment. […]

## [Cl-].[Li+] [LiCl]
  fold increase in Wnt signaling-driven luciferase expression: 140 fold
